Measurements reported in US11661426B2, “Imidazole-containing inhibitors of ALK2 kinase” (BioCryst Pharmaceuticals, Inc., priority 2017, dated 2023).
pIC50: −log10 of the molar value.

Target: ALK2 (Homo sapiens (Human), UniProt Q04771)
Assay: ALK2 inhibition, LanthaScreen Eu Kinase Binding Assay (ThermoFisher Scientific / Life Technologies)
Conditions: read-out: Measured Ki (IC50) Value for Compounds: IC50
Description: Biochemical assays to measure the inhibitory effects of the compounds were performed by ThermoFisher Scientific (Life Technologies). ALK2 inhibition was tested using LanthaScreen™ Eu Kinase Binding Assay screening protocol.

Sequence of ALK2 (Q04771 21-509): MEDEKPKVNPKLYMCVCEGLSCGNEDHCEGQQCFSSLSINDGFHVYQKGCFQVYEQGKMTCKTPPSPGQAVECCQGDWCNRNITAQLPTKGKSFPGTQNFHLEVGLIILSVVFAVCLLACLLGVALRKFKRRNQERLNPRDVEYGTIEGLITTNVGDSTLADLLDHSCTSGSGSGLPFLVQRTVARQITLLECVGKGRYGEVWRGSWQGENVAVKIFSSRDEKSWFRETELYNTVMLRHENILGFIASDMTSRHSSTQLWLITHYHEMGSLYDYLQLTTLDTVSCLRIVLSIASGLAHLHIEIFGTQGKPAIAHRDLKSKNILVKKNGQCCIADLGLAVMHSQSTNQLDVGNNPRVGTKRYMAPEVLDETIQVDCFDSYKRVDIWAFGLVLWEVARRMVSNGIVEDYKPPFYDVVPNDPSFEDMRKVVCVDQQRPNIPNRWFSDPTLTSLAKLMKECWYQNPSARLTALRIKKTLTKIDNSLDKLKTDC

SMILES | pIC50
COc1cc(-n2cnc(Nc3nc(N4CCC[C@H]4CO)nc4c3CCNC4)c2)cc(OC)c1OC [Compound 183c, (S)-(1-(4-((1-(3,4,5-trimethoxyphenyl)-1H-imidazol-4-yl)amino)-5,6,7,8-tetrahydropyrido[3,4-d]pyrimidin-2-yl)pyrrolidin-2-yl)methanol] | > 7.00
COc1cc(-n2cnc(Nc3nc(N4CCC[C@H]4CO)c4c(cnn4C)n3)c2)cc(OC)c1OC [Compound 328c, (S)-(1-(1-methyl-5-((1-(3,4,5-trimethoxyphenyl)-1H-imidazol-4-yl)amino)-1H-pyrazolo[4,3-d]pyrimidin-7-yl)pyrrolidin-2-yl)methanol] | > 7.00
COc1cc(-n2cnc(Nc3nc(N4CCC[C@H]4CO)nc4c(OC(C)C)cccc34)c2)cc(OC)c1OC [Compound 144a, (S)-(1-(8-isopropoxy-4-((1-(3,4,5-trimethoxyphenyl)-1H-imidazol-4-yl)amino)quinazolin-2-yl)pyrrolidin-2-yl)methanol] | > 7.00
COc1cc(-n2cnc(Nc3nc(N4CCCC4)nc4scnc34)c2)cc(OC)c1OC [Compound 197a, 5-(pyrrolidin-1-yl)-N-(1-(3,4,5-trimethoxyphenyl)-1H-imidazol-4-yl)thiazolo[5,4-d]pyrimidin-7-amine] | > 7.00
COc1cc(-n2cnc(Nc3nc(N4CCC[C@@H]4CO)nc4cc(N5CCN(C)CC5)ccc34)c2)cc(OC)c1OC [Compound 383a, (R)-(1-(7-(4-methylpiperazin-1-yl)-4-((1-(3,4,5-trimethoxyphenyl)-1H-imidazol-4-yl)amino)quinazolin-2-yl)pyrrolidin-2-yl)methanol] | > 7.00
COc1cc(-n2cnc(Nc3nc(N4CCC[C@H]4CO)nc4sc(CN5CCN(C)CC5)cc34)c2)cc(OC)c1OC [Compound 104b, (S)-(1-(6-((4-methylpiperazin-1-yl)methyl)-4-((1-(3,4,5-trimethoxyphenyl)-1H-imidazol-4-yl)amino)thieno[2,3-d]pyrimidin-2-yl)pyrrolidin-2-yl)methanol] | > 7.00
CC(C)(C)OC(=O)N1CCN(c2nc(Nc3cn(-c4ccccc4)cn3)c3sccc3n2)CC1 [Compound 54a, tert-butyl 4-(4-((1-phenyl-1H-imidazol-4-yl)amino)thieno[3,2-d]pyrimidin-2-yl)piperazine-1-carboxylate] | > 7.00
OC[C@@H]1CCCN1c1nc(Nc2cn(-c3ccc(OC(F)(F)F)c(Br)c3)cn2)c2cccn2n1 [Compound 420e, (S)-(1-(4-((1-(3-bromo-4-(trifluoromethoxy)phenyl)-1H-imidazol-4-yl)amino)pyrrolo[2,1-f][1,2,4]triazin-2-yl)pyrrolidin-2-yl)methanol] | < 6.00
COc1cc(-n2cnc(Nc3nc(N4CCC[C@@H]4C(N)=O)nc4c3COC4)c2)cc(OC)c1OC [Compound 312a, (R)-1-(4-((1-(3,4,5-trimethoxyphenyl)-1H-imidazol-4-yl)amino)-5,7-dihydrofuro[3,4-d]pyrimidin-2-yl)pyrrolidine-2-carboxamide] | > 7.00
N#Cc1cc(O)cc(-n2cnc(Nc3nc(N4CCC[C@H]4CO)nn4cccc34)c2)c1 [Compound 127b, (S)-3-hydroxy-5-(4-((2-(2-(hydroxymethyl)pyrrolidin-1-yl)pyrrolo[2,1-f][1,2,4]triazin-4-yl)amino)-1H-imidazol-1-yl)benzonitrile] | > 7.00
COc1cc(-n2cnc(Nc3nc(N4CCC[C@H]4CO)nc4c3CCCC4)c2)cc(OC)c1OC [Compound 296a, (S)-(1-(4-((1-(3,4,5-trimethoxyphenyl)-1H-imidazol-4-yl)amino)-5,6,7,8-tetrahydroquinazolin-2-yl)pyrrolidin-2-yl)methanol] | > 7.00
COc1cc(-n2cnc(Nc3nc(N4CCC[C@H]4CO)c4cccn4n3)c2)cc(C(C)=O)c1OC [Compound 234e, (S)-1-(5-(4-((4-(2-(hydroxymethyl)pyrrolidin-1-yl)pyrrolo[2,1-f][1,2,4]triazin-2-yl)amino)-1H-imidazol-1-yl)-2,3-dimethoxyphenyl)ethanone] | 6.00 to 7.00
OC[C@@H]1CCCN1c1nc(Nc2cn(-c3cccc4c3OCO4)cn2)c2cccn2n1 [Compound 424e, (S)-(1-(4-((1-(benzo[d][1,3]dioxol-4-yl)-1H-imidazol-4-yl)amino)pyrrolo[2,1-f][1,2,4]triazin-2-yl)pyrrolidin-2-yl)methanol] | > 7.00
COc1cc(-n2cnc(Nc3nc(N4CCC[C@H]4CO)c4cnn(C5CCCCO5)c4n3)c2)cc(OC)c1OC (stereo partly drawn) [Compound 430b, ((2S)-1-(1-(tetrahydro-2H-pyran-2-yl)-6-((1-(3,4,5-trimethoxyphenyl)-1H-imidazol-4-yl)amino)-1H-pyrazolo[3,4-d]pyrimidin-4-yl)pyrrolidin-2-yl)methanol] | > 7.00
COc1cc(-n2cnc(Nc3nc(N4CCC[C@H]4CO)c4c(C)nn(C5CCCC5)c4n3)c2)cc(OC)c1OC [Compound 440c, (S)-(1-(1-cyclopentyl-3-methyl-6-((1-(3,4,5-trimethoxyphenyl)-1H-imidazol-4-yl)amino)-1H-pyrazolo[3,4-d]pyrimidin-4-yl)pyrrolidin-2-yl)methanol] | > 7.00
COc1cc(-n2cnc(Nc3nc(N4CCC[C@@H]4C(N)=O)nn4c(CN5CCCCC5)ccc34)c2)cc(OC)c1OC [Compound 349a, (R)-1-(7-(piperidin-1-ylmethyl)-4-((1-(3,4,5-trimethoxyphenyl)-1H-imidazol-4-yl)amino)pyrrolo[2,1-f][1,2,4]triazin-2-yl)pyrrolidine-2-carboxamide] | > 7.00
COc1ccc(-c2ccc3c(Nc4cn(-c5cc(OC)c(OC)c(OC)c5)cn4)nc(N4CCC[C@H]4CO)nn23)cc1 [Compound 90a, (S)-(1-(7-(4-methoxyphenyl)-4-(1-(3,4,5-trimethoxyphenyl)-1H-imidazol-4-ylamino)pyrrolo[1,2-f][1,2,4]triazin-2-yl)pyrrolidin-2-yl)methanol] | > 7.00
COc1cc(-n2cnc(Nc3nc(N4CCC[C@@H]4CO)c4cc[nH]c4n3)c2)cc(OC)c1OC [Compound 307c, (R)-(1-(2-((1-(3,4,5-trimethoxyphenyl)-1H-imidazol-4-yl)amino)-7H-pyrrolo[2,3-d]pyrimidin-4-yl)pyrrolidin-2-yl)methanol] | > 7.00
OC[C@@H]1CCCN1c1nc(Nc2cn(C3CC3)cn2)c2cccn2n1 [Compound 26c, (S)-(1-(4-((1-cyclopropyl-1H-imidazol-4-yl)amino)pyrrolo[2,1-f][1,2,4]triazin-2-yl)pyrrolidin-2-yl)methanol] | 6.00 to 7.00
OC[C@@H]1CCCN1c1nc(Nc2cn(-c3cccnc3)cn2)c2cccn2n1 [Compound 39c, (S)-(1-(4-((1-(pyridin-3-yl)-1H-imidazol-4-yl)amino)pyrrolo[2,1-f][1,2,4]triazin-2-yl)pyrrolidin-2-yl)methanol] | > 7.00
OC[C@@H]1CCCN1c1nc(Nc2cn([C@H]3CC[C@H](CO)CC3)cn2)c2cccn2n1 [Compound 474e, ((S)-1-(4-((1-((trans)-4-(hydroxymethyl)cyclohexyl)-1H-imidazol-4-yl)amino)pyrrolo[2,1-f][1,2,4]triazin-2-yl)pyrrolidin-2-yl)methanol] | > 7.00
COc1cc(-n2cnc(Nc3nc4c(c(N5CCC[C@@H]5CO)n3)CN(C(=O)OC(C)(C)C)C4)c2)cc(OC)c1OC [Compound 366b, (R)-tert-butyl 4-(2-(hydroxymethyl)pyrrolidin-1-yl)-2-(1-(3,4,5-trimethoxyphenyl)-1H-imidazol-4-ylamino)-5H-pyrrolo[3,4-d]pyrimidine-6(7H)-carboxylate] | > 7.00
COc1cc(-n2cnc(Nc3nc(N4CCC[C@H]4CO)c4c(C)nn([C@H]5C[C@@H](N)C5)c4n3)c2)cc(OC)c1OC [Compound 444c, ((S)-1-(1-((cis)-3-aminocyclobutyl)-3-methyl-6-((1-(3,4,5-trimethoxyphenyl)-1H-imidazol-4-yl)amino)-1H-pyrazolo[3,4-d]pyrimidin-4-yl)pyrrolidin-2-yl)methanol] | > 7.00
COc1cc(-n2cnc(Nc3nc(N4CCC[C@H]4CO)c4cccnc4n3)c2)cc(OC)c1OC [Compound 174b, (S)-(1-(2-((1-(3,4,5-trimethoxyphenyl)-1H-imidazol-4-yl)amino)pyrido[2,3-d]pyrimidin-4-yl)pyrrolidin-2-yl)methanol] | > 7.00
CCn1nc(C)c2c(N3CCC[C@H]3CO)nc(Nc3cn(-c4cc(OC)c(OC)c(OC)c4)cn3)nc21 [Compound 458c, (S)-(1-(1-ethyl-3-methyl-6-((1-(3,4,5-trimethoxyphenyl)-1H-imidazol-4-yl)amino)-1H-pyrazolo[3,4-d]pyrimidin-4-yl)pyrrolidin-2-yl)methanol] | > 7.00
COc1cc(-n2cnc(Nc3nc(N4CCC[C@H]4CO)c4ccncc4n3)c2)cc(OC)c1OC [Compound 381b, (S)-(1-(2-((1-(3,4,5-trimethoxyphenyl)-1H-imidazol-4-yl)amino)pyrido[3,4-d]pyrimidin-4-yl)pyrrolidin-2-yl)methanol] | > 7.00
COc1cc(-n2cnc(Nc3nc(N4CCC[C@@H]4CO)nc4cc(C#N)ccc34)c2)cc(OC)c1OC [Compound 372a, (R)-2-(2-(hydroxymethyl)pyrrolidin-1-yl)-4-((1-(3,4,5-trimethoxyphenyl)-1H-imidazol-4-yl)amino)quinazoline-7-carbonitrile] | > 7.00
COc1cc(-n2cnc(Nc3ncc4ccccc4n3)c2)cc(OC)c1OC [Compound 198b, N-(1-(3,4,5-trimethoxyphenyl)-1H-imidazol-4-yl)quinazolin-2-amine] | 6.00 to 7.00
COc1cc(-n2cnc(Nc3nc(N4CCC[C@H]4CO)c4c(C)nn(C5CCOC5)c4n3)c2)cc(OC)c1OC (stereo partly drawn) [Compound 446c, ((2S)-1-(3-methyl-1-(tetrahydrofuran-3-yl)-6-((1-(3,4,5-trimethoxyphenyl)-1H-imidazol-4-yl)amino)-1H-pyrazolo[3,4-d]pyrimidin-4-yl)pyrrolidin-2-yl)methanol] | > 7.00
COc1cc(-n2cnc(Nc3nc(N4CCC[C@H]4C(N)=O)c4sccc4n3)c2)cc(OC)c1OC [Compound 139b, (S)-1-(2-((1-(3,4,5-trimethoxyphenyl)-1H-imidazol-4-yl)amino)thieno[3,2-d]pyrimidin-4-yl)pyrrolidine-2-carboxamide] | 6.00 to 7.00
